Results reported in ChEMBL document CHEMBL3994617, “2,8-bis(trifluoromethyl)quinoline analogs show improved anti-Zika virus activity, compared to mefloquine” (Eur J Med Chem, 2017).

Assays:
Zika virus [1] = assay: Antiviral activity against Zika virus infected in African green monkey Vero cells assessed as inhibition of viral RNA replication at 10 uM after 24 hrs by RT-PCR method relative to control; assay type: functional
[2] = Cytotoxicity against African green monkey Vero cells assessed as reduction in cell viability after 72 hrs by XTT assay; assay type: cell-based; conditions: chlorocebus sabaeus
Zika virus [3] = assay: Antiviral activity against Zika virus infected in African green monkey Vero cells assessed as inhibition of viral RNA replication after 24 hrs by RT-PCR method; assay type: functional
Zika virus [4] = assay: Potency index, ratio of mefloquine EC50 to test compound EC50 for Zika virus infected in African green monkey Vero cells; assay type: functional
[5] = Selectivity index, ratio of CC50 for African green monkey Vero cells to EC50 for Zika virus infected in African green monkey Vero cells; assay type: toxicity; conditions: read-out: Ratio CC50/EC50
Vero = assay: Cytotoxicity against African green monkey Vero cells assessed as reduction in cell viability at 10 uM after 72 hrs by XTT assay relative to control; assay type: cell-based; conditions: chlorocebus sabaeus
Zika virus [6] = assay: Potency index, ratio of chloroquine EC50 to test compound EC50 for Zika virus infected in African green monkey Vero cells; assay type: functional

Structure (SMILES)	inhibition at 10 µM (Zika virus [1]) [%]	CC50 at 72 h [2] [µM]	EC50 (Zika virus [3]) [µM]	Ratio EC50 (Zika virus [4])	selectivity ratio [5]	Activity (Vero) [%]	Ratio EC50 (Zika virus [6])
COc1cc(C(F)(F)F)nc2c(C(F)(F)F)cccc12	12						
OCCNc1cc(C(F)(F)F)nc2c(C(F)(F)F)cccc12	74.4	189	0.8	5	236		
NCCCCCCCCCCNc1cc(C(F)(F)F)nc2c(C(F)(F)F)cccc12						> 80	
NCCNc1cc(C(F)(F)F)nc2c(C(F)(F)F)cccc12	78.6	195	0.8	5	243		
FC(F)(F)c1cc(NCCCl)c2cccc(C(F)(F)F)c2n1	86.9	316	1.4	3	225		
CCCCNc1cc(C(F)(F)F)nc2c(C(F)(F)F)cccc12	58.8						
NCCCNc1cc(C(F)(F)F)nc2c(C(F)(F)F)cccc12	79.9	287	2	2	143		
O[C@@H](c1cc(C(F)(F)F)nc2c(C(F)(F)F)cccc12)[C@H]1CCCCN1 [(S,R)-MEFLOQUINE]	78.8	212	3.6		58		3
CCN(CC)CCCC(C)Nc1ccnc2cc(Cl)ccc12 (stereo not given) [CHLOROQUINE]		412	12				
